The text below walks through data of patent publication US10213409B2, “Substituted benzofurans, benzothiophenes, benzoselenophenes and indoles and their use as tubulin polymerisation inhibitors” (Bionomics Limited, priority 2006, dated 2019).

Common to all, as to format: cell-based
Assay [1] relates to Human umbilical vein endothelial cells (HUVECs), normal quiescent type (Norm). Briefly: Proliferation Assay - Quiescent Endothelium (MTT). The note with it: HUVEC. The method, then:
Proliferation Assay—Quiescent Endothelium:
Cells were cultured overnight at 37° C. 5% CO2. Medium was subsequently replaced with fresh medium including the compound or negative control. Cells were cultured for a period of 48 hrs. An MTT assay was performed to measure changes in cell numbers. Briefly, 20 μl of MTT reagent was added to cells containing 100 μl of EBM2+0.5% FBS and incubated at 37° C. for 2 hours.

Assay [2] has as its system Human umbilical vein endothelial cells (HUVECs), tumour type activated (Tum). Briefly: Proliferation Assay - Activated Endothelium (MTT). The note with it: for IC50: Homo sapiens, HUVEC, tumour type activated endothelial cells. On the procedure:
Proliferation Assay—Activated Endothelium:
Cells were cultured overnight at 37° C. 5% CO2. Medium was subsequently replaced with fresh medium including the compound or negative control. Cells were cultured for a period of 48 hrs. An MTT assay was performed to measure changes in cell numbers. Briefly, 20 μl of MTT reagent was added to cells containing 100 μl of EGM2 and incubated at 37° C. for 2 hours.

Another assay relates to MCF-7. The experiment in a line: Growth inhibition, Sulforhodamine B (SRB) or Systmex cell counting (CC) assay, MCF-7. The note with it: Homo sapiens, MCF7, concentration required to inhibit net cell growth by 50%, read-out: Cancer cell line IC50.

In the case of `COc1ccc2c(C(=O)c3cc(OC)c(OC)c(OC)c3)c(C)sc2c1` [Example 51, 6-Methoxy-2-methyl-3-(3,4,5-trimethoxybenzoyl)benzo[b]thiophene, reference compound], the concentration for half-maximal inhibition (IC50) in assay [1] and in assay [2] was 1 to 10 nM each time.

As to `COc1ccc2c(C(=O)c3cc(OC)c(OC)c(OC)c3)c(Br)oc2c1` [Example 3, 2-Bromo-3-(3,4,5-trimethoxybenzoyl)-6-methoxybenzofuran, reference compound], the values for the IC50 (in assay [1]; in assay [2]; with MCF-7) were 100 to 1000 nM, 100 to 1000 nM and 500 nM, respectively.

With `COc1cc(C(=O)c2c(Cn3nnc(N)n3)oc3c(O)c(OC)ccc23)cc(OC)c1OC` [Example 36, 2-(5-amino-2H-tetrazol-2-yl)-methyl-3-(3,4,5-tri-methoxy-benzoyl)-6-methoxy-7-hydroxy-benzo[b]furan], the IC50 in assay [1] and in assay [2] was 1 to 10 nM each time.

With `COc1cc(C(=O)c2c(C)[nH]c3c(O)c(OC)ccc23)cc(OC)c1O` [Example 40, 3-(3,5-Dimethoxy-4-hydroxybenzoyl)-7-hydroxy-6-methoxy-2-methyl-1H-indole], the values for the IC50 in assay [1] and in assay [2] were 10 to 100 nM and 1 to 10 nM, respectively.

With `COc1cc(C(=O)c2c(C)sc3c(O)c(OC)ccc23)cc(OC)c1OC` [Example 42, 7-Hydroxy-6-methoxy-2-methyl-3-(3,4,5-trimethoxybenzoyl)benzo[b]thiophene], the IC50 (as a rule, the midpoint of a concentration-inhibition curve) in assay [1] is 1 to 10 nM; in assay [2], 0.1 to 1 nM.

Take `COC(=O)/C=C/c1oc2c(O)c(OC)ccc2c1C(=O)c1cc(OC)c(OC)c(OC)c1` [Example 14, (E)-3-[7-Hydroxy-6-methoxy-3-(3,4,5-trimethoxy-benzoyl)-benzofuran-2-yl]-acrylic acid methyl ester]: the IC50 in assay [1] was 1 to 10 nM; in assay [2], 0.1 to 1 nM; in the assay with MCF-7, 2 nM.

As for `COc1cc(C(=O)c2coc3c(O)c(OC)ccc23)cc(OC)c1OC` [Example 6, 3-(3,4,5-Trimethoxybenzoyl)-6-methoxy-7-hydroxybenzofuran], the IC50 was 10 to 100 nM in assay [1], 10 to 100 nM in assay [2] and 45 nM in the assay on MCF-7.

For `COc1cc(C(=O)c2c(CN(C)CC(=O)O)oc3c(O)c(OC)ccc23)cc(OC)c1OC` [Example 44, 2-[(N-Methyl-2-amino-aceticacid)-methenyl)-3-(3,4,5-trimethoxybenzoyl)-6-methoxy-7-hydroxy-benzo[b]furan], the IC50 in assay [1] and in assay [2] was 10 to 100 nM throughout.

For `COc1cc(C(=O)c2c(NCC(=O)O)oc3c(O)c(OC)ccc23)cc(OC)c1OC` [Example 23, [7-hydroxy-6-methoxy-3(3,4,5-trimethoxy-benzoyl)-benzofuran-2-ylamino]acetic acid], the figures for the half-inhibitory concentration (IC50) (in assay [1]; in assay [2]; in the assay with MCF-7) were 100 to 1000 nM, 100 to 1000 nM and 260 nM, respectively.

For `COc1cc(C(=O)c2c(SC)oc3c(O)c(OC)ccc23)cc(OC)c1OC` [Example 9, 7-Hydroxy-6-methoxy-2-methylsulfanyl-3-(3,4,5-trimethoxybenzoyl)benzofuran], the IC50 is 1 to 10 nM in assay [1], 0.1 to 1 nM in assay [2] and 1.2 nM in the assay with MCF-7. The “potency towards activated (tumour) versus quiescent (normal) endothelial cells” value in assay [2] (comparison of activated and quiescent HUVEC assays, FIGS. 1 and 2, Table 1) is on record as “higher potency towards tumour endothelial cells (activated) over normal endothelial cells (quiescent)”.

As for `COc1ccc2c(C(=O)c3c(F)c(F)c(F)c(F)c3F)coc2c1O` [Example 53, 3-(Pentafluorobenzoyl)-6-methoxy-7-hydroxybenzo[b]furan], the results for the IC50 (in assay [1]; in assay [2]; with MCF-7) were above 1000 nM, above 1000 nM and 800 nM, respectively.

With `COc1cc(C(=O)c2c(CN3CCN(C)CC3)oc3c(O)c(OC)ccc23)cc(OC)c1OC` [Example 37, 2-(4-Methylpiperazin-1-yl)methyl-3-(3,4,5-tri-methoxy-benzoyl)-6-methoxy-7-hydroxy-benzo[b]furan], the IC50 in assay [1] and in assay [2] was 10 to 100 nM throughout.

In the case of `COc1cc(C(=O)c2c(NN)oc3c(O)c(OC)ccc23)cc(OC)c1OC` [Example 10, 2-Hydrazino-7-hydroxy-6-methoxy-3-(3,4,5-trimethoxybenzoyl)-benzofuran], the values for the IC50 (in assay [1]; in assay [2]; in the assay with MCF-7) were 10 to 100 nM, 1 to 10 nM and 35 nM, respectively.

For the compound `COc1cc(C(=O)c2c(NCCS(N)(=O)=O)oc3c(O)c(OC)ccc23)cc(OC)c1OC` [Example 45, 2-N-(Aminoethanesulphonamide)-3-(3,4,5-trimethoxybenzoyl)-6-methoxy-7-hydroxy-benzo[b]furan], the IC50 in assay [1] and in assay [2] was 1 to 10 nM in each case.

Turning to `COc1cc(C(=O)c2c(N)oc3c(O)c(OC)ccc23)cc(OC)c1OC` [Example 19, (2-Amino-7-hydroxy-6-methoxy-benzofuran-3-yl)-(3,4,5-trimethoxyphenyl)-methanone], the IC50 in assay [1] and in assay [2] was 1 to 10 nM each time.

Regarding `COc1ccc2c(C(=O)c3cc(OC)c(OC)c(OC)c3)c(O)oc2c1` [Example 30, (2-Hydroxy-6-methoxybenzofuran-3-yl)(3,4,5-trimethoxyphenyl)methanone, reference compound], the IC50 in assay [1] was 100 to 1000 nM; in assay [2], 100 to 1000 nM; in the assay on MCF-7 it was 575 nM.

Regarding `COc1cc(C(=O)c2c(Cn3ccnc3)oc3c(O)c(OC)ccc23)cc(OC)c1OC` [Example 35, 2-(1H-Imidazol-1-yl)methyl-3-(3,4,5-trimethoxybenzoyl)-6-methoxy-7-hydroxy-benzo[b]furan], the IC50 in assay [1] and in assay [2] was 1 to 10 nM each time.

In the case of `COc1cc(OC)cc(C(=O)c2coc3c(O)c(OC)ccc23)c1` [Example 52, 3-(3,5-Dimethoxybenzoyl)-7-hydroxy-6-methoxybenzo[b]furan], the results for the half-maximal inhibitory concentration (IC50) (in assay [1]; in assay [2]; in the assay with MCF-7) were 100 to 1000 nM, 100 to 1000 nM and 35 nM, respectively.

As to `COc1cc(C(=O)c2c(NCCNC(=N)N)oc3c(O)c(OC)ccc23)cc(OC)c1OC` [Example 28, 1-[2-(7-hydroxy-6-methoxy-3-(3,4,5-trimethoxybenzoyl)benzofuran-2-ylamino)ethyl]guanidine], the results for the IC50 in assay [1] and in assay [2] were 10 to 100 nM and 100 to 1000 nM, respectively.

In the case of `COc1cc(C(=O)c2c(C)oc3c(O)c(OC)ccc23)cc(OC)c1O` [Example 46, 3-(4-Hydroxy-3,5-di-methoxy-benzoyl)-7-hydroxy-6-methoxy-2-Methyl-benzo[b]furan], the half-maximal inhibitory concentration (IC50) in assay [1] fell in the range of 100 to 1000 nM; in assay [2], 10 to 100 nM.

For `COc1ccc2c(C(=O)c3cc(OC)c(OC)c(OC)c3)coc2c1` [Example 5, 3-(3,4,5-Trimethoxybenzoyl)-6-methoxy-benzofuran, reference compound], the values for the IC50 (in assay [1]; in assay [2]; in the assay on MCF-7) were 10 to 100 nM, 10 to 100 nM and 55 nM, respectively.

Take `COc1cc(C(=O)c2c(CN(C)C)oc3c(O)c(OC)ccc23)cc(OC)c1OC` [Example 34, 2-Dimethylaminomethylene-3-(3,4,5-tri-methoxy-benzoyl)-6-methoxy-7-hydroxy-benzo[b]furan]: the IC50 in assay [1] and in assay [2] was 1 to 10 nM throughout.

For the compound `C#Cc1oc2c(O)c(OC)ccc2c1C(=O)c1cc(OC)c(OC)c(OC)c1` [Example 8, 2-Ethynyl-7-hydroxy-6-methoxy-3-(3,4,5-trimethoxybenzoyl)-benzofuran], the IC50 was 1 to 10 nM in assay [1], 1 to 10 nM in assay [2] and 3.3 nM in the assay with MCF-7.

For the compound `COc1ccc(/C=C\c2cc(OC)c(OC)c(OC)c2)cc1OP(=O)(O)O` [Comparator B, reference compound], the IC50 was 1 to 10 nM in assay [1], 1 to 10 nM in assay [2] and 5 nM in the assay on MCF-7.

In the case of `COc1ccc2c(C(=O)c3cc(OC)c(OC)c(OC)c3)c[nH]c2c1` [Comparator H, reference compound], the IC50 in assay [1] and in assay [2] was 1 to 10 nM in each case.

As to `CNc1oc2c(O)c(OC)ccc2c1C(=O)c1cc(OC)c(OC)c(OC)c1` [Example 18, 2-(N-Methylamino)-7-hydroxy-3-(3,4,5-trimethoxybenzoyl)-6-methoxy-benzofuran], the IC50 in assay [1] was 0.1 to 1 nM; in assay [2], 1 to 10 nM; with MCF-7 it was 3.5 nM.

On to `COc1cc(C(=O)c2c(NCCNC(=O)OC(C)(C)C)oc3c(O)c(OC)ccc23)cc(OC)c1OC` [Example 26, tert-Butyl-2-(7-hydroxy-6-methoxy-3-(3,4,5-trimethoxybenzoyl)benzofuran-2-ylamino)ethyl carbamate], for which the IC50 in assay [1] and in assay [2] was 1 to 10 nM in each case.

As for `COC(=O)CN(C)Cc1oc2c(O)c(OC)ccc2c1C(=O)c1cc(OC)c(OC)c(OC)c1` [Example 43, 2-[(N-Methyl-2-amino-aceticacid methyl ester)-methenyl)-3-(3,4,5-trimethoxybenzoyl)-6-methoxy-7-hydroxy-benzo[b]furan], the IC50 in assay [1] and in assay [2] was 1 to 10 nM each time.

With `CCC/C=C/c1oc2c(O)c(OC)ccc2c1C(=O)c1cc(OC)c(OC)c(OC)c1` [Example 13], the IC50 in assay [1] was 1 to 10 nM; in assay [2], 1 to 10 nM; with MCF-7 it was 8 nM.

For the compound `COc1ccc(/C=C\c2cc(OC)c(OC)c(OC)c2)cc1O` [Comparator A, reference compound], the IC50 was 1 to 10 nM in assay [1], 1 to 10 nM in assay [2] and 5 nM in the assay on MCF-7.

In the case of `COc1cc(C(=O)c2c(C)[nH]c3c(O)c(OC)ccc23)cc(OC)c1OC` [Example 39, 7-Hydroxy-6-methoxy-2-methyl-3-(3,4,5-trimethoxybenzoyl)-1H-indole], the IC50 in assay [1] fell in the range of 0.1 to 1 nM; in assay [2], 0.01 to 0.1 nM.
